Patent publication US20260258064A1 (SIRONAX LTD., priority 2023, published 2026)

The compounds below were run against T1, SARM1 (50-724) (Homo sapiens, UniProt Q6SZW1) (assay: SARM1 (50-724) enzymatic assay (LC-MS/MS)). Settings: Purified SARM1 (50-724) 2 nM, NMN as activator, NAD+ as substrate, 1 h at room temperature, read-out: IC50 (SARM1 inhibitory activity).
T1 construct: Purified SARM1 (50-724) with a final concentration of 2 nM was pre-incubated with a test compound
T1 sequence (Q6SZW1 50-724): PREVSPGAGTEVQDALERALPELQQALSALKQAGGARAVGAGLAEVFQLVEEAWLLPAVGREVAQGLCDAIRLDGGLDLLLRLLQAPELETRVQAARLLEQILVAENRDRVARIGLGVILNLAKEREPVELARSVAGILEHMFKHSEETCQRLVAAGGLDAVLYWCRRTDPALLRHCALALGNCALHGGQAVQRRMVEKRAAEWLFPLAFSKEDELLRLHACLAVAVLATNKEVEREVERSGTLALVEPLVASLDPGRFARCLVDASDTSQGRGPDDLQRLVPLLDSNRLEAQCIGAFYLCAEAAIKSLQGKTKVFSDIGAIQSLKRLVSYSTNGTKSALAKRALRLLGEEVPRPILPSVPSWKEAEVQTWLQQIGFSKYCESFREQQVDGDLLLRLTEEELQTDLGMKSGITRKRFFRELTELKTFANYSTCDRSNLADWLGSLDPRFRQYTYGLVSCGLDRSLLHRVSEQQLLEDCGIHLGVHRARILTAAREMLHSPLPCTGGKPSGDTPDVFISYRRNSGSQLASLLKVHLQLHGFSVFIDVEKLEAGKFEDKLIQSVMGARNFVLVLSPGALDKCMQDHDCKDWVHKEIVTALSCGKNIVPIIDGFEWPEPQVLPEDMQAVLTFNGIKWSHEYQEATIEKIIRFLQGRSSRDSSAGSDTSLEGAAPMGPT
Assay type: biochemical
Procedure: An enzymatic assay was performed in a 384-well plate using Dulbecco's phosphate-buffered saline (PBS) as the reaction buffer. Purified SARM1 (50-724) with a final concentration of 2 nM was pre-incubated with a test compound at […] final assay concentration for 15 min at room temperature. The reaction was initiated by adding a mixture of […] nicotinamide mononucleotide (NMN) as activator and […] NAD^+ as substrate. After 1 h of incubation at room temperature, the reaction was terminated with 10 times volume of 70% acetonitrile, and then centrifuged at 3800 rpm for 10 min. The samples were analyzed using LC-MS/MS after diluted to a proper concentration by 10 mM ammonium acetate (pH 9.75).
In Table 2, activity is provided as follows: A: IC50≤100 nM; B: 100 nM<IC50≤500 nM; C: 500 nM<IC50≤1000 nM; D: IC50>1000 nM.

| IC50 [nM] | SMILES |
| --- | --- |
| > 1000 | FC(F)(F)c1ccc2[nH]c(-c3ncncc3-c3cccc(Cl)c3Cl)nc2c1 [Compound 310, 2-(5-(2,3-dichlorophenyl)pyrimidin-4-yl)-5-(trifluoromethyl)-1H-benzo[d]imidazole] |
| ≤ 100 | CC(C)(O)COc1ccc(OC(F)(F)F)c(-n2cnnc2-c2nc3cc(C(F)(F)F)ccc3[nH]2)n1 [Compound 255, 2-methyl-1-((5-(trifluoromethoxy)-6-(3-(5-(trifluoromethyl)-1 H-benzo[d]imidazol-2-yl)-4H-1,2,4-triazol-4-yl)pyridin-2-yl)oxy)propan-2-ol] |
| 100 to 500 | FC(F)(F)c1ccc2[nH]c(-c3nnnn3-c3cccc(Cl)c3Cl)nc2c1 [Example 99] |
| 100 to 500 | Cn1nc(Cl)c(Cl)c1-n1cnnc1-c1nc2cc(C(F)(F)F)ccc2[nH]1 [Example 63] |
| ≤ 100 | OCCOCc1nnc(-c2nc3cc(C(F)(F)F)ccc3[nH]2)n1-c1cccc(Cl)c1Cl [Example 126] |
| > 1000 | CCN(C)C(=O)c1ccc2[nH]c(-c3nncn3-c3ccc(F)c(F)c3Cl)nc2c1 [Compound 172, 2-(4-(2-chloro-3,4-difluorophenyl)-4H-1,2,4-triazol-3-yl)-N-ethyl-N-methyl-1H-benzo[d]imidazole-5-carboxamide] |
| > 1000 | FC(F)(F)c1ccc2[nH]c(-c3nncn3-c3cccn4ccnc34)nc2c1 [Example 70] |
| > 1000 | CS(=O)(=O)c1c(Br)ccc2[nH]c(-c3nncn3-c3cccc(Cl)c3Cl)nc12 [Example 95, 5-bromo-2-(4-(2,3-dichlorophenyl)-4H-1,2,4-triazol-3-yl)-4-(methylsulfonyl)-1H-benzo[d]imidazole] |
| 100 to 500 | Clc1cccc(-n2cnnc2-c2nc3cc(-c4cncnc4)ccc3[nH]2)c1Cl [Example 73, 2-(4-(2,3-dichlorophenyl)-4H-1,2,4-triazol-3-yl)-5-(pyrimidin-5-yl)-1H-benzo[d]imidazole] |
| > 1000 | Cn1cc(-c2cccc(Cl)c2Cl)c(-c2nc3cc(C(C)(C)O)ccc3[nH]2)cc1=O [Example 83, 5-(2,3-Dichlorophenyl)-4-(5-(2-hydroxypropan-2-yl)-1H-benzo[d]imidazol-2-yl)-1-methylpyridin-2 (1H)-one] |
| ≤ 100 | Fc1cc(C2CC2COC(F)F)cc2nc(-c3nncn3-c3cnccc3C(F)(F)F)[nH]c12 (stereo not drawn) [Compound 440, 5-(2-((difluoromethoxy)methyl)cyclopropyl)-7-fluoro-2-(4-(4-(trifluoromethyl)-pyridin-3-yl)-4H-1,2,4-triazol-3-yl)-1H-benzo[d]imidazole] |
| ≤ 100 | CC(c1cc(F)c2[nH]c(-c3nncn3-c3cnccc3C(F)(F)F)nc2c1)c1nccs1 (racemic) [Compound 412, 2-(1-(7-fluoro-2-(4-(4-(trifluoromethyl)pyridin-3-yl)-4H-1,2,4-triazol-3-yl)-1H-benzo[d]imidazol-5-yl)ethyl)thiazole] |
| 100 to 500 | NC1CC1c1ccc2[nH]c(-c3nncn3-c3cnccc3C(F)(F)F)nc2c1F (stereo not drawn) [Compound 324, 2-(4-fluoro-2-(4-(4-(trifluoromethyl)pyridin-3-yl)-4H-1,2,4-triazol-3-yl)-1H-benzo[d]imidazol-5-yl)cyclopropan-1-amine] |
| 100 to 500 | FC(F)(F)c1ccc2[nH]c(-c3nnc(S)n3-c3cccc(Cl)c3Cl)nc2c1 [Example 108, 4-(2,3-dichlorophenyl)-5-(5-(trifluoromethyl)-1H-benzo[d]imidazol-2-yl)-4H-1,2,4-triazole-3-thiol] |
| ≤ 100 | CC1(c2cc(F)c3[nH]c(-c4nncn4-c4cnccc4C(F)(F)F)nc3c2)COC1 [Compound 290, 7-fluoro-5-(3-methyloxetan-3-yl)-2-(4-(4-(trifluoromethyl)pyridin-3-yl)-4H-1,2,4-triazol-3-yl)-1H-benzo[d]imidazole] |
| 100 to 500 | NC(=O)c1nnc(-c2nc3cc(C(F)(F)F)ccc3[nH]2)n1-c1cccc(Cl)c1Cl [Compound 77] |
| ≤ 100 | Oc1cc(F)c2[nH]c(-c3nncn3-c3cnccc3C(F)(F)F)nc2c1 [Compound 327, 7-fluoro-2-(4-(4-(trifluoromethyl)pyridin-3-yl)-4H-1,2,4-triazol-3-yl)-1H-benzo[d]imidazol-5-ol] |

| IC50 [nM] | SMILES |
| --- | --- |
| 500 to 1000 | Cc1ccc2[nH]c(-c3ccncc3-c3cccc(Cl)c3Cl)nc2c1 [Example 22] |
| ≤ 100 | Oc1ccc(C(F)(F)F)c(-n2cnnc2-c2nc3cc(C(F)(F)F)ccc3[nH]2)c1 [Compound 240, 4-(trifluoromethyl)-3-(3-(5-(trifluoromethyl)-1H-benzo[d]imidazol-2-yl)-4H-1,2,4-triazol-4-yl)phenol] |
| > 1000 | Cc1ccc2[nH]c(-c3nncn3C3CCCC3)c(CO)c2c1 [Compound 11, [2-(4-cyclopentyl-1,2,4-triazol-3-yl)-5-methyl-1H-indol-3-yl]methanol] |
| > 1000 | Cc1ncsc1-n1cnnc1-c1nc2cc(C(F)(F)F)ccc2[nH]1 [Compound 272, 4-methyl-5-(3-(5-(trifluoromethyl)-1H-benzo[d]imidazol-2-yl)-4H-1,2,4-triazol-4-yl)thiazole] |
| ≤ 100 | Fc1cc(C2CC23CCOCC3)cc2nc(-c3nncn3-c3cnccc3C(F)(F)F)[nH]c12 (stereo not drawn) [Compound 360, 7-fluoro-5-(6-oxaspiro[2.5]octan-2-yl)-2-[4-[4-(trifluoromethyl)-3-pyridyl]-1,2,4-triazol-3-yl]-1H-benzimidazole] |
| ≤ 100 | FC(F)Oc1ncccc1-n1cnnc1-c1nc2cc(C(F)(F)F)ccc2[nH]1 [Compound 235, 2-(4-(2-(difluoromethoxy)pyridin-3-yl)-4H-1,2,4-triazol-3-yl)-5-(trifluoromethyl)-1H-benzo[d]imidazole] |
| ≤ 100 | CC(C)(C#N)c1ccc2[nH]c(-c3nncn3-c3cccc(Cl)c3Cl)nc2c1 [Example 112] |
| ≤ 100 | FC(F)(F)c1ccc2[nH]c(-c3nncn3-c3cnccc3C(F)(F)F)c(-c3ccco3)c2c1 [Compound 376, 3-(2-furyl)-5-(trifluoromethyl)-2-[4-[4-(trifluoromethyl)-3-pyridyl]-1,2,4-triazol-3-yl]-1H-indole] |
| ≤ 100 | FC(F)(F)c1ccc2[nH]c(-c3nncn3-c3cnccc3C(F)(F)F)c(-c3ccnnc3)c2c1 [Compound 427, 3-pyridazin-4-yl-5-(trifluoromethyl)-2-[4-[4-(trifluoromethyl)-3-pyridyl]-1,2,4-triazol-3-yl]-1H-indole] |
| > 1000 | FC(F)(F)c1ccncc1-n1cnnc1-c1nc2c(N3CC4(COC4)C3)c(Cl)ccc2[nH]1 [Compound 357, 6-(5-chloro-2-(4-(4-(trifluoromethyl)pyridin-3-yl)-4H-1,2,4-triazol-3-yl)-1H-benzo[d]imidazol-4-yl)-2-oxa-6-azaspiro[3.3]heptane] |
| ≤ 100 | Clc1cccc(-n2cnnc2-c2nc3cc(C4CCOC4)ccc3[nH]2)c1Cl (stereo not drawn) [Example 128, 2-(4-(2,3-dichlorophenyl)-4H-1,2,4-triazol-3-yl)-5-(tetrahydrofuran-3-yl)-1H-benzo[d]imidazole] |
| ≤ 100 | Cc1nccc(C(F)(F)F)c1-n1cnnc1-c1nc2cc(C(F)(F)F)ccc2[nH]1 [Compound 246, 2-(4-(2-methyl-4-(trifluoromethyl)pyridin-3-yl)-4H-1,2,4-triazol-3-yl)-5-(trifluoromethyl)-1H-benzo[d]imidazole] |
| ≤ 100 | CC(NC12CC(C1)C2)c1cc(F)c2[nH]c(-c3nncn3-c3cnccc3C(F)(F)F)nc2c1 (stereo not drawn) [Compound 453, N-(1-(7-fluoro-2-(4-(4-(trifluoromethyl)pyridin-3-yl)-4H-1,2,4-triazol-3-yl)-1H-benzo[d]imidazol-5-yl)ethyl)bicyclo[1.1.1]pentan-1-amine] |
| > 1000 | FC(F)(F)c1ccc2[nH]c(-c3nnc(OC4CSC4)n3-c3cccc(Cl)c3Cl)nc2c1 [Compound 131] |
| ≤ 100 | CS(=O)(=O)Cc1nnc(-c2nc3cc(C(F)(F)F)ccc3[nH]2)n1-c1cccc(Cl)c1Cl [Example 88, 2-(4-(2,3-dichlorophenyl)-5-((methylsulfonyl)methyl)-4H-1,2,4-triazol-3-yl)-5-(trifluoromethyl)-1H-benzo[d]imidazole] |
| 100 to 500 | CS(=O)(=O)Cn1ncc(-c2nc3cc(C(F)(F)F)ccc3[nH]2)c1-c1cccc(Cl)c1Cl [Compound 439, 2-(5-(2,3-dichlorophenyl)-1-((methylsulfonyl)methyl)-1H-pyrazol-4-yl)-5-(trifluoromethyl)-1H-benzo[d]imidazole] |
